Reference: US9120749B2, “Quinoline derivatives and MELK inhibitors containing the same” (ONCOTHERAPY SCIENCE, INC., priority 2010, dated 2015)
Where a name gives a salt, the structure may show the parent alone. Read-outs that look alike come from different tables or passages of the source.

Legend:
T47D cells = experiment: Cell-based assay: anti-proliferative activity, Cell Counting Kit-8, 72 hours (T47D)
In short: (§1)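 Anti-MELK western blot on crude lysates → MELK status per line. Cells plated 96-well, compound exposure, CCK-8 readout at 72 h; IC50 calculated.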

A549 cells = experiment: Cell-based assay: anti-proliferative activity, Cell Counting Kit-8, 72 hours (A549); conditions: 72 hours
In short: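 A549 cells seeded in 96-well plates and exposed to candidate inhibitors for 72 hours. Growth measured with Cell Counting Kit-8; IC50 values calculated from the dose response.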

HT-1197 cells = experiment: Cell-based assay: anti-proliferative activity, Cell Counting Kit-8, 72 hours (HT-1197, negative control without MELK expression); conditions: HT1197 cells (negative control, no MELK expression), 72 hours
In short: as §1

22Rv1 cells = experiment: Cell-based assay: anti-proliferative activity, Cell Counting Kit-8, 72 hours (22Rv1)
DU4475 cells = experiment: Cell-based assay: anti-proliferative activity, Cell Counting Kit-8, 72 hours (DU4475)
MELK = MELK (Homo sapiens, UniProt Q14680); experiment: Kinase assay: MELK activity, phosphorylation of FITC-labeled histone H3 peptide measured by IMAP fluorescence polarization; assay type: biochemical; conditions: read-out: IC50 (μM) (kinase assay)
In short: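 Compounds, serially diluted from 12.5 mM DMSO stocks to 1% final DMSO, were tested with FITC-labeled histone H3 peptide as substrate. The reaction was stopped with progressive binding solution. Fluorescence polarization was read after 0.5 hour at room temperature.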

Sequence of MELK (Q14680 whole entry, looked up): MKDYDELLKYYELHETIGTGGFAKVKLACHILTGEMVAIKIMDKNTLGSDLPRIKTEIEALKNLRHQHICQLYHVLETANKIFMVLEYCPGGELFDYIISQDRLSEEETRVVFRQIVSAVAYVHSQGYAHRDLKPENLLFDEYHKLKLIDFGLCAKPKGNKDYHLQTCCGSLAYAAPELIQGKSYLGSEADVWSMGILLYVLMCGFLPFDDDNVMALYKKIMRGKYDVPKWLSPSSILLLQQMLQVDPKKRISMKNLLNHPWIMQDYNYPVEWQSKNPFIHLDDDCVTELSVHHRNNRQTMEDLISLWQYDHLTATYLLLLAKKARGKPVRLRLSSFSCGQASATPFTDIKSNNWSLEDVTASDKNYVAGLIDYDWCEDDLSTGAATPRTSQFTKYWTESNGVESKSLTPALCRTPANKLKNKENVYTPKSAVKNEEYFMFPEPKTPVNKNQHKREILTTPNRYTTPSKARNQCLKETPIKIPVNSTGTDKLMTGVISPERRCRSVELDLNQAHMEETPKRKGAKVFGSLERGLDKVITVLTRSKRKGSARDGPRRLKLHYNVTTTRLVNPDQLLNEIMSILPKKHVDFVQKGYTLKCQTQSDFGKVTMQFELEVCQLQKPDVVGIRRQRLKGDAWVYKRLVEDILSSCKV

Compound	IC50 (T47D cells; Homo sapiens, T47D, 72 h) [µM]	IC50 (A549 cells; Homo sapiens, A549, 72 h) [µM]	IC50 (HT-1197 cells; Homo sapiens, HT1197, 72 h) [µM]	IC50 (22Rv1 cells; Homo sapiens, 22Rv1, 72 h) [µM]	IC50 (DU4475 cells; Homo sapiens, DU-4475, 72 h) [µM]	IC50 (MELK) [µM]	further results
CC(=O)c1cnc2ccc(-c3cc(Cl)c(O)c(Cl)c3)cc2c1N[C@H]1CC[C@H](CN2CCN(C)CC2)CC1 [Example 782, 1-(6-(3,5-dichloro-4-hydroxyphenyl)-4-(1R,4R)-4-((4-methylpiperazin-1-yl)methyl)cyclohexylamino)quinolin-3-yl)ethanone hydrochloride]	0.15	0.23	5.9	0.41	0.16		
CN(C)CCNc1ccc(Nc2c(C(=O)C3CC3)cnc3ccc(-c4cc(F)c(O)c(Cl)c4)cc23)cn1 [Example 777, (6-(3-chloro-5-fluoro-4-hydroxyphenyl)-4-(6-(2-(dimethylamino)ethylamino)pyridin-3-ylamino)quinolin-3-yl)(cyclopropyl)methanone trihydrochloride]							IC50 (T47D cells; 72 hours, trihydrochloride): 0.12 µM; IC50 (A549 cells; trihydrochloride): 0.12 µM; IC50 (HT-1197 cells; trihydrochloride): 1.6 µM; IC50 (22Rv1 cells; trihydrochloride): 0.17 µM; IC50 (DU4475 cells; trihydrochloride): 0.047 µM
CC(=O)c1cnc2ccc(-c3cc(Cl)c(O)c(Cl)c3)cc2c1N[C@H]1CC[C@H](CN2CCC[C@H]2CO)CC1 [Example 792, 1-(6-(3,5-dichloro-4-hydroxyphenyl)-4-((1S,4r)-4-(((S)-2-(hydroxymethyl)pyrrolidin-1-yl)methyl)cyclohexylamino)quinolin-3-yl)ethanone]	0.079	0.1		0.12	0.073	0.0011	
CC(=O)c1cnc2ccc(-c3cc(Cl)c(O)c(Cl)c3)cc2c1N[C@H]1CCC[C@@H](CN2CCN(C)CC2)C1 [Example 835, 1-(6-(3,5-dichloro-4-hydroxyphenyl)-4-((1S,3R)-3-((4-methylpiperazin-1-yl)methyl)cyclohexylamino)quinolin-3-yl)ethanone hydrochloride]	0.58	0.79	2.7	0.81	0.6		
CCC(=O)c1cnc2ccc(-c3cc(Cl)c(O)c(Cl)c3)cc2c1Nc1ccc(N2CCC(N)C2)nc1 (centres unmarked) [Example 761, 1-(4-(6-(3-aminopyrrolidin-1-yl)pyridin-3-ylamino)-6-(3,5-dichloro-4-hydroxyphenyl)quinolin-3-yl)propan-1-one]	0.031	0.053	1.5		0.022	0.0026	
COc1cc(-c2ccc3ncc(C(C)=O)c(N[C@H]4CC[C@H](CN5CCC(O)C5)CC4)c3c2)cc(Cl)c1O (some centres unmarked) [Example 749]	0.12	0.22	6.4		0.21	0.0017	
O=C(c1cnc2ccc(-c3cc(Cl)c(O)c(Cl)c3)cc2c1Nc1cccc(CCN2CCCC2)c1)C1CC1 [Example 798, cyclopropyl(6-(3,5-dichloro-4-hydroxyphenyl)-4-(3-(2-(pyrrolidin-1-yl)ethyl)phenylamino)quinolin-3-yl)methanone hydrochloride]							IC50 (MELK; hydrochloride): 0.0029 µM; IC50 (T47D cells; 72 hours, hydrochloride): 0.16 µM; IC50 (A549 cells; hydrochloride): 0.019 µM; IC50 (22Rv1 cells; hydrochloride): 0.092 µM; IC50 (DU4475 cells; hydrochloride): 0.02 µM
CC(=O)c1cnc2ccc(-c3cc(F)c(O)c(Cl)c3)cc2c1Nc1cccc(CCN2CCCC2)c1 [Example 803, 1-(6-(3-chloro-5-fluoro-4-hydroxyphenyl)-4-(3-(2-(pyrrolidin-1-yl)ethyl)phenylamino)quinolin-3-yl)ethanone]	0.65	0.17		0.44	0.12	0.016	
CC(=O)c1cnc2ccc(-c3cc(Cl)c(O)c(Cl)c3)cc2c1N[C@H]1CC[C@H](CN2CCC[C@@H]2CO)CC1 [Example 812]	0.15	0.18		0.2	0.086	0.0017	
O=C(c1cnc2ccc(-c3cc(F)c(O)c(Cl)c3)cc2c1Nc1cccc(CCN2CCCC2)c1)C1CC1 [Example 800, (6-(3-chloro-5-fluoro-4-hydroxyphenyl)-4-(3-(2-(pyrrolidin-1-yl)ethyl)phenylamino)quinolin-3-yl)(cyclopropyl)methanone hydrochloride]							IC50 (MELK; hydrochloride): 0.012 µM; IC50 (T47D cells; 72 hours, hydrochloride): 0.26 µM; IC50 (A549 cells; hydrochloride): 0.041 µM; IC50 (22Rv1 cells; hydrochloride): 0.17 µM; IC50 (DU4475 cells; hydrochloride): 0.046 µM
CC(=O)c1cnc2ccc(-c3cc(Cl)c(O)c(Cl)c3)cc2c1Nc1cccc(CCN2CCCC2)c1 [Example 801, 1-{6-(3,5-Dichloro-4-hydroxyphenyl)-4-[3-(2-(pyrrolidin-1-yl)ethyl)phenylamino]quinolin-3-yl}ethanone]	0.37	0.081		0.15	0.06	0.004	
COc1cc(-c2ccc3ncc(C(C)=O)c(N[C@@H]4CCC[C@@H](CN(C)C)C4)c3c2)cc(Cl)c1O [Example 752, 1-(6-(3-chloro-4-hydroxy-5-methoxyphenyl)-4-((1R,3R)-3-((dimethylamino)methyl)cyclohexylamino)quinolin-3-yl)ethanone]	0.18	0.2	3.4		0.17	0.001	
CC(=O)c1cnc2ccc(-c3cc(Cl)c(O)c(Cl)c3)cc2c1N[C@@H]1CCC[C@@H](CN(C)C)C1 [Example 750, 1-(6-(3,5-dichloro-4-hydroxyphenyl)-4-((1R,3R)-3-((dimethylamino)methyl)cyclohexylamino)quinolin-3-yl)ethanone]	0.2	0.39	1.7		0.19	0.0023	
CC(=O)c1cnc2ccc(-c3cc(Cl)c(O)c(Cl)c3)cc2c1N[C@H]1CC[C@H](CN2CCC(O)C2)CC1 (some centres unmarked) [Example 753]	0.13	0.37	71		0.057	0.0015	
COc1cc(-c2ccc3ncc(C(=O)C4CC4)c(Nc4ccc(NCCN(C)C)nc4)c3c2)cc(Cl)c1O [Example 746, (6-(3-chloro-4-hydroxy-5-methoxyphenyl)-4-(6-(2-(dimethylamino)ethylamino)pyridin-3-ylamino)quinolin-3-yl)(cyclopropyl)methanone]	0.23	0.18	6.2		0.11	0.0029	
CC(=O)c1cnc2ccc(-c3cc(Cl)c(O)c(Cl)c3)cc2c1Nc1cccc(CCN2CCCC2)c1 [Example 802, 1-(6-(3,5-dichloro-4-hydroxyphenyl)-4-(3-(2-(pyrrolidin-1-yl)ethyl)phenylamino)quinolin-3-yl)ethanone hydrochloride]							IC50 (MELK; hydrochloride): 0.0021 µM; IC50 (T47D cells; 72 hours, hydrochloride): 0.45 µM; IC50 (A549 cells; hydrochloride): 0.08 µM; IC50 (22Rv1 cells; hydrochloride): 0.16 µM; IC50 (DU4475 cells; hydrochloride): 0.072 µM
CCC(=O)c1cnc2ccc(-c3cc(Cl)c(O)c(Cl)c3)cc2c1N[C@H]1CC[C@H](N(C)C)CC1 [Example 754, 1-(6-(3,5-dichloro-4-hydroxyphenyl)-4-((trans-4-(dimethylamino)cyclohexyl)amino)quinolin-3-yl)propan-1-one]	0.19	0.22	10		0.072	0.02	
CC(=O)c1cnc2ccc(-c3cc(F)c(O)c(Cl)c3)cc2c1N[C@@H]1CCC[C@@H](CN(C)C)C1 [Example 751, 1-(6-(3-chloro-5-fluoro-4-hydroxyphenyl)-4-((1R,3R)-3-((dimethylamino)methyl)cyclohexylamino)quinolin-3-yl)ethanone]	0.32	0.58	1.7		0.29	0.0067	
CN(C)CCNc1ccc(Nc2c(C(=O)C3CC3)cnc3ccc(-c4cc(Cl)c(O)c(Cl)c4)cc23)cn1 [Example 747, cyclopropyl(6-(3,5-dichloro-4-hydroxyphenyl)-4-(6-(2-(dimethylamino)ethylamino)pyridin-3-ylamino)quinolin-3-yl)methanone]	0.16	0.091	2.6		0.043	0.0043	
CC(=O)c1cnc2ccc(-c3cc(Cl)c(O)c(Cl)c3)cc2c1Nc1cnn(C2CCN(C)CC2)c1 [Example 836, 1-(6-(3,5-dichloro-4-hydroxyphenyl)-4-((1-(1-methylpiperidin-4-yl)-1H-pyrazol-4-yl)amino)quinolin-3-yl)ethanone dihydrochloride]	0.35	0.45		0.27	0.082		IC50 (MELK; MELK kinase assay, IMAP fluorescence polarization, 50 micro-M ATP): 0.0014 µM
CC(=O)c1cnc2ccc(-c3cc(F)c(O)c(Cl)c3)cc2c1Nc1cccc(CCN(C)C)c1 [Example 759, 1-(6-(3-chloro-5-fluoro-4-hydroxyphenyl)-4-(3-(2-(dimethylamino)ethyl)phenylamino)quinolin-3-yl)ethanone]	0.67	0.42	10		0.2	0.013	
O=C(c1cnc2ccc(-c3cc(Cl)c(O)c(Cl)c3)cc2c1Nc1cccc(CCN2CCCC2)c1)C1CC1 [Example 797, Cyclopropyl{6-(3,5-dichloro-4-hydroxyphenyl)-4-[3-(2-(pyrrolidin-1-yl)ethyl)phenylamino]quinolin-3-yl}methanone]	0.31	0.022		0.12	0.03	0.0056	
